{"source": "paper PMC12782889", "about": "“A GmNRF5a–GmCERK1–GmCAK1 module mediates chitin/chitosan‐triggered immune response in soybean” (Journal of Integrative Plant Biology, 2025)", "key": {"[1]": {"test_system": "GmNFR5a^ECDL153R", "experiment": "MST binding to GmNFR5a^ECD mutant L153R", "parameters": "species or system soybean (Glycine max)", "settings": "ligand dp6", "excerpt": "The ectodomains of GmCERK1, GmNFR5a, and mutants were cloned into the yeast expression vector pPICZαA (Thermo Fisher Scientific, Shanghai, China) through the double digestion and ligation using the restriction endonuclease EcoRI/XbaI (NEB, Suzhou, China) and T4 ligase. Then, the linearized recombinant plasmid pPICZαA‐GmCERK1 and pPICZαA‐GmNFR5a were transformed into P. pastoris X‐33. The positive colonies were selected on YPDS medium (1% w/v yeast extract, 2% w/v peptone, 2% w/v glucose, 2% w/v agar, 100 μg/mL antibiotic Zeocin (Thermo Fisher Scientific)) plates and verified by direct DNA sequencing. Protein expression was carried out initially in BMGY media (100 mM potassium phosphate pH 6.0, 1.34% w/v YNB, 4 × 10^−5% w/v biotin, 1% v/v glycerol) at 28°C with shaking (180 rpm) until the OD600 reached 2.0–6.0. The cell pellet was transferred into BMMY medium (100 mM potassium phosphate pH 6.0, 1.34% w/v YNB, 4 × 10^−5% w/v biotin, 0.5% v/v methanol) and continuously supplied with the addition of 0.5% (v/v) methanol every day for 5 d. […]\nGmCERK1^ECD, GmNFR5a^ECD, and all mutants were labeled with a fluorescent dye using the Monolith Protein Labeling Kit RED‐NHS second Generation (MO‐L011). […] The data were analyzed and fitted by plotting ligand concentrations against bound fractions using the MO.Affinity Analysis v3.0.5 software. […]"}, "[2]": {"test_system": "phosphorylated MPK6/3/4 (P42/44) in soybean leaf discs", "experiment": "MAPK phosphorylation immunoblot in soybean leaf discs", "type": "cell-based, soybean (Glycine max)", "settings": "soybean leaf discs at 5 min; anti-phospho P42/44 immunoblot; vs control dH2O", "procedure": "(§1) To measure the oxidation burst, leaf discs (Ø 0.5 cm) collected from 2-week-old soybean (cultivar Williams) were floated overnight in 200 μL sterile H2O in a 96-well plate. The H2O was replaced with 200 μL reaction buffer containing luminol/peroxidase ([…] luminol, 10 mg/mL peroxidase) and chitooligosaccharides treatments (50 mg/L). flg22 was used as a positive control. The luminescence was measured using a GLOMAX96 microplate luminometer (Promega, Madison, WI, USA). The experiments for MAPK activation were carried out as described previously ([[…] et al., 2014]). The MAPK activation was determined by immunoblots with anti-phospho-p44/42 MAPK antibody (#4370; Cell Signaling, Boston, MA, USA)."}, "[3]": {"test_system": "soybean leaf discs (ROS burst)", "experiment": "Luminol-based ROS burst assay in soybean leaf discs", "type": "cell-based, soybean (Glycine max)", "settings": "50 mg/L, leaf discs of soybean Williams, dH2O negative control", "procedure": "as §1"}, "[4]": {"biological_target": "T1, AtCERK1^ECD (Arabidopsis thaliana, UniProt A8R7E6)", "T1 construct": "ectodomain of AtCERK1 (aa25–224); made in house; host or cells: Pichia pastoris X-33", "T1 sequence (A8R7E6 25-224)": "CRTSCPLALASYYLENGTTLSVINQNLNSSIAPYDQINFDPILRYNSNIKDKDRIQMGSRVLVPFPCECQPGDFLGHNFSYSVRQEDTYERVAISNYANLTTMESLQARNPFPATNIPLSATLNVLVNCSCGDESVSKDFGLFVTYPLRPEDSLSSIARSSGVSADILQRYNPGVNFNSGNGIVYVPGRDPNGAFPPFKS", "parameters": "method as in Cao et al., 2014", "settings": "isothermal titration calorimetry (ITC); ref Cao et al., 2014; read-out: K D for AtCERK1^ECD with CTOS; cited from earlier work"}}, "note": "pKd: −log10 of the molar value.", "data": [{"smiles": "N[C@H]1[C@H](O[C@H]2[C@H](O)[C@@H](N)[C@H](O[C@H]3[C@H](O)[C@@H](N)[C@H](O[C@H]4[C@H](O)[C@@H](N)[C@H](O[C@H]5[C@H](O)[C@@H](N)[C@H](O[C@H]6[C@H](O)[C@@H](N)C(O)O[C@@H]6CO)O[C@@H]5CO)O[C@@H]4CO)O[C@@H]3CO)O[C@@H]2CO)O[C@H](CO)[C@@H](O)[C@@H]1O", "note": "(stereo partly shown) [CSOS (dp6), chitosan oligosaccharide]", "values": [{"measurement": "interaction with GmNFR5a^ECDL153R", "setting": "[1]", "result": "cannot interact"}, {"measurement": "MAPK phosphorylation", "setting": "[2]", "result": "can induce MAPK activity"}]}, {"smiles": "CC(=O)N[C@H]1[C@H](O[C@H]2[C@H](O)[C@@H](NC(C)=O)[C@H](O[C@H]3[C@H](O)[C@@H](NC(C)=O)C(O)O[C@@H]3CO)O[C@@H]2CO)O[C@H](CO)[C@@H](O[C@@H]2O[C@H](CO)[C@@H](O[C@@H]3O[C@H](CO)[C@@H](O[C@@H]4O[C@H](CO)[C@@H](O)[C@H](O)[C@H]4NC(C)=O)[C@H](O)[C@H]3NC(C)=O)[C@H](O)[C@H]2NC(C)=O)[C@@H]1O", "note": "(stereo partly shown) [CTOS (dp6), chitin oligosaccharide]", "values": [{"measurement": "ROS burst", "setting": "[3]", "result": "stronger ROS burst than that of CTOS (dp4)"}, {"measurement": "pKd", "setting": "[4]", "result": 3.34}]}]}
